According to ChEMBL document CHEMBL4354794, “Potential Anticancer Agents Characterized from Selected Tropical Plants” (J Nat Prod, 2019):
Values after ≈ are worked out from the molar mass of the structure shown. Blank lines part the entries; values can stand above or below the compound they belong to.

What was measured:
HT-3 = test: Antiproliferative activity against human HT3 cells assessed as reduction in cell viability after 6 days by MTT assay; assay type: functional, cell-based; conditions: HT-3, 144 h
DU-145 = test: Antiproliferative activity against human DU145 cells assessed as reduction in viability after 48 hrs by MTTS assay; assay type: functional, cell-based; conditions: DU-145, 48 h
SK-OV-3 = test: Antiproliferative activity against human SKOV3 cells assessed as reduction in cell viability after 48 hrs by CCK8 assay; assay type: functional, cell-based; conditions: SK-OV-3, 48 h
OVCAR-3 [1] = test: Antiproliferative activity against human OVCAR3 cells assessed as reduction in cell viability after 48 hrs by CCK8 assay; assay type: functional, cell-based; conditions: OVCAR-3, 48 h
KB [2] = test: Antiproliferative activity against human KB cells assessed as reduction in cell viability; assay type: functional, cell-based
HEp-2 = test: Antiproliferative activity against human Hep2 cells by MTT assay; assay type: functional, cell-based
KB [3] = test: Antiproliferative activity against human KB/HeLa cells assessed as reduction in cell viability; assay type: functional, cell-based
[4] = Antiproliferative activity against human Ben-Men-1 cells incubated for 72 hrs by resazurin dye based fluorescence assay; assay type: functional, cell-based
[5] = Antiproliferative activity against mouse Sch10545 cells incubated for 72 hrs by resazurin dye based fluorescence assay; assay type: functional, cell-based
HT-29 [6] = test: Antiproliferative activity against human HT-29 cells assessed as reduction in cell viability; assay type: functional, cell-based
A-431 = test: Antiproliferative activity against human A431 cells assessed as reduction in cell viability; assay type: functional; conditions: read-out: ED50 (the source's name)
HT = test: Antiproliferative activity against human HT cells assessed as reduction in cell viability; assay type: functional; conditions: read-out: ED50 (the source's name)
P388 = test: Antiproliferative activity against mouse P388 cells assessed as reduction in cell viability; assay type: functional, cell-based; conditions: read-out: ED50 (the source's name)
Col2 = test: Antiproliferative activity against human Col2 cells assessed as reduction in cell viability; assay type: functional, cell-based
KB-V1 = test: Antiproliferative activity against human KBV1 cells assessed as reduction in cell viability; assay type: functional; conditions: read-out: ED50 (the source's name)
[7] = Antiproliferative activity against human U373 cells assessed as reduction in cell viability; assay type: functional, U-373MG ATCC; conditions: U373 MG, read-out: ED50 (the source's name)
[8] = Antiproliferative activity against human BC1 cells assessed as reduction in cell viability; assay type: functional; conditions: read-out: ED50 (the source's name)
[9] = Toxicity in po dosed mouse; assay type: organism-based; conditions: in vivo
HeLa = test: Antiproliferative activity against human HeLa cells assessed as reduction in cell viability; assay type: functional, cell-based
OVCAR-8 = test: Antiproliferative activity against human OVCAR8 cells assessed as reduction in cell viability; assay type: functional, cell-based
OVCAR-3 [10] = test: Antiproliferative activity against human OVCAR3 cells assessed as reduction in cell viability; assay type: functional, cell-based
[11] = Inhibition of chymotrypsin-like proteasome (unknown origin) using Suc-LLVY-AMC as substrate by fluorescence based assay; set-up: species or system Homo sapiens
HT-29 [12] = test: Antiproliferative activity against human HT-29 cells assessed as reduction in cell viability after 3 days by SRB assay; assay type: functional, cell-based; conditions: HT-29, 72 h
[13] = target: Tyrosine-protein phosphatase non-receptor type 1 (Homo sapiens, UniProt P18031); test: Inhibition of recombinant human PTP1B (1 to 322 residues) expressed in Escherichia coli assessed as reduction in p-nitrophenol formation using p-nitrophenyl phosphate as substrate incubated for 30 mins by spectrophotometric method
HL-60 = test: Antiproliferative activity against human HL60 cells assessed as reduction in cell viability after 3 days by trypan blue dye based hemocytometer counting method; assay type: functional; conditions: HL-60, 72 h
MDA-MB-231 = test: Antitumour activity against human MDA-MB-231 cells xenografted in Nu/Nu mouse at 10 mg/kg, iv for 6 times at 2 days interval; assay type: functional
SK-HEP1 = test: Cytotoxicity against human SKHEP1 cells assessed as reduction in viability; assay type: functional, cell-based
WRL68 = test: Cytotoxicity against human WRL68 cells assessed as reduction in viability; assay type: cell-based

Tyrosine-protein phosphatase non-receptor type 1, sequence (P18031 whole entry, the tested form may be a part): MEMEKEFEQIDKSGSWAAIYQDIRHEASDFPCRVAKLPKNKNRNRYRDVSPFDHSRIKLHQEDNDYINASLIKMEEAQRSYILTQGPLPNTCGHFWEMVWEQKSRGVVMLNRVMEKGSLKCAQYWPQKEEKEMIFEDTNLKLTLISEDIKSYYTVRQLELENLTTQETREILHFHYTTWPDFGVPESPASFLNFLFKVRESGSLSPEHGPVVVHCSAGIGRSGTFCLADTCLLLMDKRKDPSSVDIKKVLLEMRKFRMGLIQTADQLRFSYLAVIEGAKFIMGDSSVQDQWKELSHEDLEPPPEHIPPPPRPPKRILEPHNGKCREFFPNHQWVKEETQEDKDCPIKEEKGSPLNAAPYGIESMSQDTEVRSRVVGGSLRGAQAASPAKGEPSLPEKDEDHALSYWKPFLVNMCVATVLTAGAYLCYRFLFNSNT

Structure (SMILES): COc1cc2c(OC)c3c(c(-c4ccc5c(c4)OCO5)c2cc1OC)C(=O)OC3 [JUSTICIDIN A]
IC50 (HT-3): 0.0018 µg/mL (≈ 0.00456 µM)

Structure (SMILES): C[C@]12CC[C@H]3[C@@H](CC[C@H]4C[C@@H](O)[C@H](O)C[C@@]43C=O)[C@@]1(O)CC[C@@H]2C1=CC(=O)OC1 [CALOTROPAGENIN]
IC50 (DU-145): 480 nM

IC50 (SK-OV-3): > 10000 nM
IC50 (OVCAR-3 [1]): > 10000 nM
Structure (SMILES): O=c1c2cc(O)ccc2oc2cccc(O)c12

Structure (SMILES): CC[C@H](CC[C@@H](C)[C@H]1CC[C@H]2[C@@H]3CC=C4C[C@@H](O)CC[C@]4(C)[C@H]3CC[C@]12C)C(C)C [BETA-SITOSTEROL]
IC50 (KB [2]): > 10 µg/mL
IC50 (HEp-2): 11400 nM
IC50 (KB [3]): > 242000 nM

Structure (SMILES): C=C(C)C(=O)O[C@H]1C[C@@]2(C)OC(=CC2=O)/C(CO)=C\[C@H]2OC(=O)C(=C)[C@H]12 [GOIAZENSOLIDE]
IC50 [4]: 1000 nM
IC50 [5]: 1000 nM

IC50 (HT-29 [6]): > 10000 nM
EC50 (A-431): 330 to 1560 nM
EC50 (P388): 330 to 1560 nM
EC50 (KB-V1): 2140 nM
EC50 (KB [3]; read-out: ED50 (the source's name)): 330 to 1560 nM
Structure (SMILES): COc1cc(-c2oc3cc(OC)c(OC)c(O)c3c(=O)c2OC)ccc1O [CHRYSOSPLENOL B]
EC50 (HT): 330 to 1560 nM
IC50 (Col2): > 10 µg/mL
EC50 [7]: 330 to 1560 nM
EC50 [8]: 330 to 1560 nM

Structure (SMILES): C[C@H]1O[C@@H](O[C@H]2[C@@H](O)C[C@H](O[C@H]3[C@@H](O)C[C@H](O[C@H]4CC[C@@]5(C)[C@H](CC[C@@H]6[C@@H]5CC[C@]5(C)[C@@H](C7=CC(=O)OC7)CC[C@]65O)C4)O[C@@H]3C)O[C@@H]2C)C[C@H](O)[C@@H]1O [DIGITOXIN]
LD50 [9]: 10 to 80 mg/kg

Structure (SMILES): C[C@@H]1C[C@H](O)[C@]2(O)O[C@@H]3C[C@@]4(C=O)[C@@H](CC[C@@H]5[C@@H]4CC[C@]4(C)[C@@H](C6=CC(=O)OC6)CC[C@]54O)C[C@H]3O[C@@H]2O1 [CALOTROPIN]
IC50 (DU-145): 30 nM

IC50 (HeLa): > 10000 nM
Structure (SMILES): O=c1cc(-c2ccc(O)c(-c3c(O)cc(O)c4c(=O)cc(-c5ccc(O)cc5)oc34)c2)oc2cc(O)cc(O)c12 [AMENTOFLAVONE]

Structure (SMILES): COc1cc2c(O[C@@H]3O[C@H](CO)[C@@H]4OC(C)(C)O[C@@H]4[C@H]3O)c3c(c(-c4ccc5c(c4)OCO5)c2cc1OC)C(=O)OC3
IC50 (HT-29 [6]): 43 nM
IC50 (OVCAR-8): 4 nM
IC50 (OVCAR-3 [10]): 4.2 nM

IC50 [11]: 1300 nM
IC50 (HT-29 [12]): > 10000 nM
Structure (SMILES): O=C1c2c(O)cc(O)cc2O[C@@H](c2ccc(O)cc2)[C@@H]1c1c(O)cc(O)c2c(=O)cc(-c3ccc(O)c(O)c3)oc12

Structure (SMILES): CC(C)=CC[C@]12OC(C)(C)[C@H]3C[C@H](C=C4C(=O)c5c(O)cc(O)cc5O[C@@]431)C2=O [COCHINCHINOXANTHONE]
IC50 [13]: 6600 nM

Structure (SMILES): COc1ccc(-c2c3c(c(O)c4cc5c(cc24)OCO5)COC3=O)cc1OC
IC50 (HT-3): > 10 µg/mL

Structure (SMILES): CC(C)=CCC[C@]1(C)C=Cc2c(O)c3c(c(CC=C(C)C)c2O1)O[C@]12C(=C[C@@H]4C[C@H]1C(C)(C)O[C@@]2(C/C=C(/C)C(=O)O)C4=O)C3=O [GAMBOGIC ACID]
IC50 (HL-60): 170 nM
fold change (FC) (MDA-MB-231): 1.31

Structure (SMILES): COc1c(O)cc2oc3cc(O)c(CC=C(C)C)c(O)c3c(=O)c2c1CC=C(C)C [MANGOSTIN]
IC50 (SK-HEP1): 19600 nM
IC50 (WRL68): 158000 nM
